Patent publication US20230312643A1, “PEPTIDE DERIVATIVE WITH COLLAGENASE INHIBITORY ACTIVITY, AND USE THEREOF” (SUNMARINE BIOTECH, priority 2020, published 2023)

Tests used:
[1] = tested on: collagenase; experiment: Collagenase inhibitory activity (EnzChek Gelatinase/Collagenase Assay Kit, DQ collagen); format: biochemical
Method: Collagenase inhibitory activity was performed by purchasing EnzChek® Gelatinase/Collagenase Assay Kit (250-2000 Assays) reagent from Invitrogen. First, DQ collagen stock solution (1 mg/ml) was prepared by adding 1.0 ml of DDW to 1 mg DQ collagen vial. The 18 ml of DDW was added to 2 ml of 10× reaction buffer, so as to dilute reaction buffer. Then, a collagenase enzyme reagent was prepared, and diluted with reaction buffer to a final concentration of 0.2 U/ml as working solution. Three samples of 50 ? each were prepared in a 96-well plate. The 30 ? of reaction buffer was added to 20 ? of DQ collagen and sample blank, and 30 ? of working solution was added to a sample, which were then left in a light-blocked state at room temperature for about one to two hours, and then fluorescence intensity was measured at excitation wavelength 485 nm and emission wavelength 535 nm using ELISA plate reader (VICTOR X3™, PerkinElmer, US).
As a positive control, copper peptide (Comparative Example 12), which is a representative peptide widely used as a raw material for functional cosmetics, was prepared at the same concentration and used. Copper peptide has excellent skin regeneration ability and thus is used as a raw material to suppress skin aging by promoting wound healing, strengthening skin elasticity, and increasing subcutaneous fat layers.

[2] = HS68 cytotoxicity test (MTS cell viability); format: cell-based; conditions: human, HS68 cells (skin fibroblasts)
Method: Skin fibroblast HS68 cells were used. The medium was DMEM high glucose (SH30243.01, HyClone™, Logan, UT, USA) medium containing 10% fetal bovine serum (FBS, Lonza, Valais, Switzerland) medium. The cell lines were cultured in an incubator adjusted to 95% humidity, 5% CO2 and 37° C., and at this time, a medium antibiotic (Penicillin streptomycin, Gibco, Calif., USA) was used to suppress contamination or proliferation of microorganisms.
Cell viability was measured using MTS (CellTiter 96® AQueous One Solution Cell Proliferation Assay, Promega, USA) reagent. The cells were divided at a concentration of 1×10^4 cells/well in a 96-well plate and then stabilized for 24 hours in an incubator controlled to 95% humidity, 5% CO2 and 37° C. After that, the samples were treated for each concentration and cultured for 24 hours in an incubator controlled to 95% j humidity, 5% CO2 and 37° C. After the medium was removed, 9 ml of medium (DMEM high, free FBS) was added to 1 ml of the reagent and diluted, and then 100 ul of the diluted solution was treated per well. After the reaction at 37° C. for 60 minutes, absorbance was measured at 490 nm with microplate reader (Molecular Devices, VersaMax ELISA Microplate Reader, USA). Cell viability was represented by absorbance of a sample-treated group compared to a control group not treated with the sample.

NC(=O)C[C@H](NC(=O)CNC(=O)[C@@H]1CCCN1)C(=O)O [PGN, Pro-Gly-Asn, reference compound]
Collagenase inhibitory activity ([1]; 0.05 mg/ml): 1.6 ± 3.3%
Collagenase inhibitory activity ([1]; 0.1 mg/ml): 4.7 ± 3.9%
Collagenase inhibitory activity ([1]; 0.5 mg/ml): 11.2 ± 6.2%
Collagenase inhibitory activity ([1]; 1 mg/ml): 13.1%
collagenase inhibitory activity IC50 ([1]; FIGS. 5 and 6): 1577 µg/mL
viability at 24 h, 1 µg/mL ([2]; HS68, 1 μg/ml): 104 ± 3.9%
viability at 24 h, 10 µg/mL ([2]; HS68, 10 μg/ml): 117 ± 11.5%
viability at 24 h, 50 µg/mL ([2]; HS68, 50 μg/ml): 128 ± 2.2%
viability at 24 h, 100 µg/mL ([2]; HS68, 100 μg/ml): 130.1 ± 0.1%
